US20200268711A1, “Use Of Carbamate Compound For Reducing Or Treating Developmental Disorders Including Fragile X Syndrome, Angelman Syndrome Or Rett Syndrome” (SK BIOPHARMACEUTICALS CO., LTD., priority 2017, published 2020)

Legend:
Assay type in all cases: in vivo
[1] = test system: Fmr1 gene-deficient mouse; assay: Audiogenic seizure test in Fmr1 gene-deficient mouse model; conditions: for Percent seized / Percent survival / Time to seizure occurrence / Time to respiratory arrest: 30 minutes before the test; for Time to seizure occurrence: 135 dB sound, 300 seconds if seizure does not occur; for Time to respiratory arrest: 300 seconds if mouse survives without respiratory arrest; for Median seizure score (seizure intensity level): compared to the vehicle administration group, score 0-5
Protocol: (§1) Male FVB.129P2-Pde6b^+ Tyr^c-ch Fmr1^tm1Cgr/J gene-deficient mice were purchased from Jackson Laboratories, and audiogenic seizure experiments were performed at 3 weeks of age. After purchase, the experimental animals were maintained under a controlled lighting environment (12 hours lighting/12 hours non-lighting) and maintained at a temperature of 20-23° C. and about 50% relative humidity. Food and water were provided ad libitum. Mice were randomly divided into groups. The test was carried out under lighting.
MPEP (2-methyl-6-(phenylethynyl)pyridine) HCl was used as a positive control, dissolved in sterile injectable saline, and administered intraperitoneally at a dose of 30 mg/kg. MPEP was prepared at a volume of 10 ml/kg and administered 30 minutes before the test.
Test Compound was dissolved in 30% PEG 300, and two doses of 10 mg/kg and 20 mg/kg were used, Test Compound was prepared at a volume of 10 ml/kg and administered intraperitoneally 30 minutes before the test. As a negative control, a vehicle (30% PEG 300) was administered.
Vehicle, MPEP or Test Compound was administered to mice of 21 days of age 30 minutes before the test. Mice were placed in a Plexiglas chamber for 15 seconds and exposed to 135 decibels (dB) of sound. During the test for 5 minutes, the mice were scored as following criteria based on the reaction of the mouse, the time required until the reaction and the intensity of the seizure.
1: Wild running and jumping
The following endpoints were measured and observed, and in the case of animals that had no reaction, the time to reaction was set to 300 seconds for convenience in analysis.
2. Time to respiratory arrest (300 seconds if mouse survives without respiratory arrest)
Data were analyzed by ANOVA, and if appropriate, Fisher PLSD post-hoc analysis was performed. The average seizure intensity was analyzed non-parametrically. The effect was defined as significant when p<0.05. Results are represented as mean values ±standard error.

[2] = test system: Fmr1 gene-deficient mouse; assay: Open field test (locomotor activity, rearing) in Fmr1 gene-deficient mouse model; conditions: 20 mg/kg i.p. once a day, day 4 of administration; 60 minutes; in comparison with the vehicle administration group
Protocol: as §1, with “Laboratories.” for “Laboratories, and audiogenic seizure experiments were performed at 3 weeks of age.”, “The drugs were administered once a day for 6 days at 8 weeks of age. The” for “The”
(§2) Test Compound was dissolved in 30% PEG 300, and two doses of 10 mg/kg and 20 mg/kg were used. Test Compound was prepared at a volume of 10 ml/kg and administered intraperitoneally 30 minutes before the test.
1. Locomotor activity: Locomotor activity test was performed on day 4 of administration in the course of administering daily for 6 days in 8-week-old mice.
A Plexiglas square chamber (27.3×27.3×20.3 cm) surrounded by infrared rays was used to measure the horizontal and vertical movements. Mice were acclimatized to the laboratory for at least 1 hour before the test and then placed in the center of the chamber to measure activity in the open field for 1 hour. […] The distance was measured by the breakage of the horizontal light beam by the movement of the mouse. […]
The data were analyzed by ANOVA, and if appropriate, Fisher PLSD post-hoc analysis was performed using Statview software. […]

[3] = test system: Fmr1 gene-deficient mouse; assay: Fear conditioning test (contextual and cued) in Fmr1 gene-deficient mouse model; conditions: day 6; for Freezing during contextual fear conditioning test: in comparison with the vehicle administration group
Protocol: as §1, with “Laboratories.” for “Laboratories, and audiogenic seizure experiments were performed at 3 weeks of age.”, “The drugs were administered once a day for 6 days at 8 weeks of age. The” for “The”
as §2
2. Fear conditioning test: On day 5 and day 6 of administration, and 30 minutes after administration, training and drug efficacy tests were carried out, respectively. The test was performed using a fear conditioning system manufactured by Coulbourn Instruments (PA, USA).
Training was done 30 minutes after administration on day 5 of administration. The mice were placed in a conditioning chamber and accustomed to the environment for 120 seconds, and then exposed to 6 kHz, 75 dB sound stimulus (conditioned stimulus) for 20 seconds. 30 seconds after the end of the conditioned stimulation, 0.5 mA electrostimulation shock (unconditioned stimulus) was applied to the mouse paws. Mice were left in the conditioning chamber for an additional 60 seconds and then returned to the original cage.
On the morning of day 6, 30 minutes after administration mice were placed in the same chamber as the previous day, and then trained for 5 minutes without shock or other obstructions in order to perform a drug efficacy test for contextual memory. On day 6, after 4 hours of the contextual conditioning test, a drug efficacy test was performed on cued memory by stimulus signals. The mice were exposed to a new environment for 2 minutes (before the stimulation signal), and conditions and stimulation were applied three times in total for 20 seconds. Freezing behavior was defined as the complete loss of movement and was captured using a video system and FreezeView software (Coulbourn Instrument Penn., USA). The chamber was cleaned with 70% ethanol with each mouse change.
The data were analyzed by ANOVA, and if appropriate, Fisher PLSD post-hoc analysis was performed using Statview software. The effect was defined as significant when p<0.05. Results are represented as mean values ±standard error.

[4] = 20 mg/kg i.p. once a day, compared with the vehicle administration group

Cc1cccc(C#Cc2ccccc2)n1 [MPEP, 2-methyl-6-(phenylethynyl)pyridine, reference compound] was tested, and the Percent seized ([1]; 30 mg/kg i.p.) was “No seizures occurred”, the Percent survival ([1]; 30 mg/kg i.p.) was 100% and the “Time to seizure occurrence” value ([1]; 30 mg/kg i.p.) was 300 s. The “Time to respiratory arrest” value ([1]; 30 mg/kg i.p.) was 300 s and the “Median seizure score (seizure intensity level)” value (shortened to “Median seizure score”) ([1]; 30 mg/kg i.p.) was “significantly reduced”.

With NC(=O)O[C@@H](Cn1ncnn1)c1ccccc1Cl [Test Compound, Carbamic acid (R)-1-(2-chlorophenyl)-2-tetrazol-2-yl-ethyl ester] the Percent seized ([1]; 10 mg/kg i.p.) was “No seizures occurred”, the Percent survival ([1]; 10 mg/kg i.p.) was 100% and the “Time to seizure occurrence” value ([1]; 10 mg/kg i.p.) was 300 s. The “Time to respiratory arrest” value ([1]; 10 mg/kg i.p.) was 300 s, the “Median seizure score” value ([1]; 10 mg/kg i.p.) was “significantly reduced” and the Percent seized ([1]; 20 mg/kg i.p.) was “No seizures occurred”. The Percent survival ([1]; 20 mg/kg i.p.) was 100%, the “Time to seizure occurrence” value ([1]; 20 mg/kg i.p.) was 300 s and the “Time to respiratory arrest” value ([1]; 20 mg/kg i.p.) was 300 s. For the same compound, the “Median seizure score” value ([1]; 20 mg/kg i.p.) was “significantly reduced”, the “Locomotor activity (total distance traveled)” value [2] was “significantly decreased” and the Rearing activity [2] was “decreased”. For the same compound, the “Rate of freezing in cue test, while the stimulus signal was given” value ([3]; 10 mg/kg i.p. once a day, compared with the vehicle administration group) was “significantly increased”, the “Freezing during contextual fear conditioning test” value ([3]; 10 mg/kg i.p. once a day) was “significantly increased” and the “Freezing in cue test, after the stimulus signal” value [3, 4] was “significant increase”. The “Rate of freezing in cue test, while the stimulus signal was given” value [3, 4] was “significantly increased” and the “Freezing during contextual fear conditioning test” value ([3]; 20 mg/kg i.p. once a day) was “significantly increased”.
